Test results taken from EP3696177A1, “HETEROCYCLIC COMPOUNDS FOR THE CONTROL OF INVERTEBRATE PESTS” (BASF SE, priority 2019, dated 2020).

Assays:
Type in all cases: in vivo
Caenorhabditis elegans = Caenorhabditis elegans liquid diet microtiter plate test; details: 96 h, read-out: mortality in comparison with untreated controls (nematode motility (mortality))
Protocol: For evaluating control of Caenorhabditis elegans through contact or systemic means the test unit consisted of 96-well-microtiter plates containing a liquid diet.
The compounds or mixtures were formulated using a solution containing 75% water and 25% DMSO. Different concentrations of formulated compounds were sprayed into the microtiter plate wells at 5µl per well, using a custom built micro atomizer, at two replications. Mixed instar 60-100 C. elegans were transferred into the micro-titer plate wells. After application, the nematodes were incubated at 18 + 1°C, 70 + 5 % RH for 4 days. Nematode motility (mortality) was then visually assessed.

Plutella xylostella = experiment: Diamond back moth (Plutella xylostella) cabbage leaf disc dip test; details: foliar, 72 h, read-out: mortality in comparison with untreated controls
Protocol: The active compound is dissolved at the desired concentration in a mixture of 1:1 (vol:vol) distilled water: acetone. Surfactant (Kinetic) is added at a rate of 0.01% (vol/vol). The test solution is pre-pared at the day of use.
Cabbage leaf discs (60mm in diameter) are dipped in test solution and air-dried. Treated leaves are placed in petri dishes lined with moistened filter paper and inoculated with ten 3rd instar larvae. Mortality is recorded 72 hours after treatment. Feeding damage is also recorded using a scale of 0-100%.

Myzus persicae = experiment: Green peach aphid (Myzus persicae) artificial diet/membrane systemic test; details: 72 h, read-out: mortality in comparison with untreated controls
Source text: For evaluating control of green peach aphid (Myzus persicae) through systemic means the test unit consisted of 96-well-microtiter plates containing liquid artificial diet under an artificial membrane.
The compounds were formulated using a solution containing 75% v/v water and 25% v/v DMSO. Different concentrations of formulated compounds were pipetted into the aphid diet, using a cus-tom built pipetter, at two replications.
After application, 5 - 8 adult aphids were placed on the artificial membrane inside the microtiter plate wells. The aphids were then allowed to suck on the treated aphid diet and incubated at about 23 + 1°C and about 50 + 5 % relative humidity for 3 days. Aphid mortality and fecundity was then visually assessed.

Nephotettix virescens = experiment: Rice green leafhopper (Nephotettix virescens) spray test on rice seedlings; details: adults, after 72 hours, read-out: mortality in comparison with untreated controls
Protocol: Four to five-week old rice seedlings with cut upper leaf portion are cleaned and washed 24 hours before spraying. The active compounds are formulated in 1:1 acetone:water (vol:vol), and 0.01% vol/vol surfactant (Kinetic) is added. Potted rice seedlings are sprayed with 5-6 ml test solution, air dried, covered with Mylar cages and inoculated with 10 adults. Treated rice plants are kept at about 28-29°C and relative humidity of about 50-60%. Percent mortality is recorded after 72 hours.

Aphis craccivora = experiment: Cowpea aphid (Aphis craccivora) spray test on potted cowpea plants; details: aphids of various stages, after 72 hours, read-out: mortality in comparison with untreated controls
Protocol: The active compound is dissolved at the desired concentration in a mixture of 1:1 (vol: vol) distilled water: acetone. Surfactant (Kinetic) is added at a rate of 0.01% (vol/vol). The test solution is prepared at the day of use.
Potted cowpea plants are colonized with approximately 30 - 50 aphids of various stages by man-ually transferring aphid-infested leaf clippings 24 hours before application. Plants are sprayed with the test solutions using a DeVilbiss® hand atomizer at 20- 30 psi (≈ 1.38 to 2.07 bar) after the pest population has been checked. Treated plants are maintained on light carts at about 25- 26°C. Estimate percent mortality is assessed after 72 hours.

Megoura viciae = experiment: Vetch aphid (Megoura viciae) broad bean leaf disk test; details: foliar, 120 h, read-out: mortality in comparison with untreated controls
Protocol: For evaluating control of vetch aphid (Megoura viciae) through contact or systemic means the test unit consisted of 24-well-microtiter plates containing broad bean leaf disks.
The compounds were formulated using a solution containing 75% v/v water and 25% v/v DMSO. Different concentrations of formulated compounds were sprayed onto the leaf disks at 2.5 µl, us-ing a custom built micro atomizer, at two replications.
After application, the leaf disks were air-dried and 5 - 8 adult aphids placed on the leaf disks in-side the microtiter plate wells. The aphids were then allowed to suck on the treated leaf disks and incubated at about 23 + 1°C and about 50 + 5 % relative humidity for 5 days. Aphid mortality and fecundity was then visually assessed.

Anthonomus grandis = experiment: Boll weevil (Anthonomus grandis) insect diet microtiter plate test; details: 120 h, read-out: mortality in comparison with untreated controls (egg and larval mortality)
Protocol: For evaluating control of boll weevil (Anthonomus grandis) the test unit consisted of 96-well-microtiter plates containing an insect diet and 5-10 A. grandis eggs.
The compounds were formulated using a solution containing 75% v/v water and 25% v/v DMSO. Different concentrations of formulated compounds were sprayed onto the insect diet at 5 µl, using a custom built micro atomizer, at two replications.
After application, microtiter plates were incubated at about 25 + 1°C and about 75 + 5 % relative humidity for 5 days. Egg and larval mortality was then visually assessed.

dichromothrips corbetti = experiment: Orchid thrips floral-immersion test; details: 72 h, read-out: mortality in comparison with untreated controls
Protocol: Dichromothrips corbetti adults used for bioassay are obtained from a colony maintained continu-ously under laboratory conditions. For testing purposes, the test compound is diluted in a 1:1 mix-ture of acetone:water (vol:vol), plus Kinetic at a rate of 0.01% v/v.
Thrips potency of each compound is evaluated by using a floral-immersion technique. Each orchid petal is dipped into treatment solution and allowed to dry in Petri dishes. Treated petals are placed into individual re-sealable plastic along with about 20 adult thrips. All test arenas are held under dark condition and a temperature of about 28°C for duration of the assay. The percent mor-tality is recorded 72 hours after treatment.

Heliothis virescens = experiment: Tobacco budworm (Heliothis virescens) insect diet microtiter plate test; details: 120 h, read-out: mortality in comparison with untreated controls (egg and larval mortality)
Protocol: For evaluating control of tobacco budworm (Heliothis virescens) the test unit consisted of 96-well-microtiter plates containing an insect diet and 15-25 H. virescens eggs.
The compounds were formulated using a solution containing 75% v/v water and 25% v/v DMSO. Different concentrations of formulated compounds were sprayed onto the insect diet at 10 µl, us-ing a custom built micro atomizer, at two replications.
After application, microtiter plates were incubated at about 28 + 1°C and about 80 + 5 % relative humidity for 5 days. Egg and larval mortality was then visually assessed.

Nezara viridula = experiment: Green soldier stink bug (Nezara viridula) soybean pod spray test; details: 120 h, late 3rd instar N. viridula, after 5 days, read-out: mortality in comparison with untreated controls
Protocol: The active compound is dissolved at the desired concentration in a mixture of 1:1 (vol:vol) distilled water: aceteone. Surfactant (Kinetic) is added at a rate of 0.01% (vol/vol).The test solution is prepared at the day of use.
Soybean pods are placed in 90 x 50 mm glass Petri dishes lined with moistened filter paper and inoculated with ten late 3rd instar N. viridula. Using a hand atomizer, an approximately 2 ml solution is sprayed into each Petri dish. Treated set-up is kept at about 25-26°C and relative humidity of about 65-70%. Percent mortality is recorded after 5 days.

Tetranychus kanzawai = experiment: Red spider mite (Tetranychus kanzawai) spray test on cowpea beans; details: topical, 72 h, read-out: mortality in comparison with untreated controls
Protocol: The active compound is dissolved at the desired concentration in a mixture of 1:1 (vol:vol) distilled water: acetone. Add surfactant (Kinetic) is added at a rate of 0.01% (vol/vol). The test solution is prepared at the day of use.
Potted cowpea beans of 4-5 days of age are cleaned with tap water and sprayed with 1-2 ml of the test solution using air driven DeVilbiss® hand atomizer at 20- 30 psi (≈ 1,38 to 2,07 bar). The treated plants are allowed to air dry and afterwards inoculated with 30 or more mites by clipping a cassava leaf section from rearing population. Treated plants are placed inside a holding room at about 25-26°C and about 65-70% relative humidity. Estimate percent mortality is assessed 72 hours after treatment.

Aedes aegypti = experiment: whole plant or invertebrate; details: 48 h, A. aegypti larvae, incubated 2 days, read-out: mortality in comparison with untreated controls (larval mortality)
Protocol: For evaluating control of yellow fever mosquito (Aedes aegypti) the test unit consisted of 96-well-microtiter plates containing 200µl of tap water per well and 5-15 freshly hatched A. aegypti larvae.
The active compounds were formulated using a solution containing 75% (v/v) water and 25% (v/v) DMSO. Different concentrations of formulated compounds or mixtures were sprayed onto the insect diet at 2.5µl, using a custom built micro atomizer, at two replications.
After application, microtiter plates were incubated at 28 + 1°C, 80 + 5 % RH for 2 days. Larval mortality was then visually assessed.

CN1C(=O)SC(NC(=O)c2ccc(C3=NOC(c4cc(Cl)cc(Cl)c4)(C(F)(F)F)C3)cc2Cl)C1=O (stereo not drawn) [Compound I-1-1]
> 75%: mortality at 2500 ppm (Caenorhabditis elegans) | mortality at 300 ppm (Plutella xylostella) | mortality at 2500 ppm (Myzus persicae) | mortality at 300 ppm (Nephotettix virescens) | mortality at 300 ppm (Aphis craccivora) | mortality at 2500 ppm (Megoura viciae) | mortality at 2500 ppm (Anthonomus grandis) | mortality at 300 ppm (dichromothrips corbetti) | mortality at 2500 ppm (Heliothis virescens) | mortality at 300 ppm (Nezara viridula) | mortality at 300 ppm (Tetranychus kanzawai) | mortality at 2500 ppm (Aedes aegypti)

CCN1C(=O)SC(NC(=O)c2ccc(C3=NOC(c4cc(Cl)cc(Cl)c4)(C(F)(F)F)C3)cc2Cl)C1=O (stereo not drawn) [Compound I-1-2]
> 75%: mortality at 2500 ppm (Caenorhabditis elegans) | mortality at 300 ppm (Plutella xylostella) | mortality at 2500 ppm (Myzus persicae) | mortality at 300 ppm (Nephotettix virescens) | mortality at 300 ppm (Aphis craccivora) | mortality at 2500 ppm (Megoura viciae) | mortality at 2500 ppm (Anthonomus grandis) | mortality at 300 ppm (dichromothrips corbetti) | mortality at 2500 ppm (Heliothis virescens) | mortality at 300 ppm (Nezara viridula) | mortality at 300 ppm (Tetranychus kanzawai) | mortality at 2500 ppm (Aedes aegypti)

CC(C)N1C(=O)SC(NC(=O)c2ccc(C3=NOC(c4cc(Cl)cc(Cl)c4)(C(F)(F)F)C3)cc2Cl)C1=O (stereo not drawn) [Compound I-1-3]
> 75%: mortality at 2500 ppm (Caenorhabditis elegans) | mortality at 300 ppm (Plutella xylostella) | mortality at 2500 ppm (Myzus persicae) | mortality at 2500 ppm (Megoura viciae) | mortality at 2500 ppm (Anthonomus grandis) | mortality at 300 ppm (dichromothrips corbetti) | mortality at 2500 ppm (Heliothis virescens) | mortality at 300 ppm (Nezara viridula) | mortality at 300 ppm (Tetranychus kanzawai) | mortality at 2500 ppm (Aedes aegypti)

Cc1cc(C2=NOC(c3cc(Cl)cc(Cl)c3)(C(F)(F)F)C2)ccc1C(=O)NC1SC(=O)N(C)C1=O (stereo not drawn) [Compound I-1-4, 4-[5-(3,5-dichlorophenyl)-5-(trifluoromethyl)-4H-isoxazol-3-yl]-2-methyl-N-(3-methyl-2,4-dioxo-thiazolidin-5-yl)benzamide]
> 75%: mortality at 300 ppm (Plutella xylostella) | mortality at 2500 ppm (Myzus persicae) | mortality at 300 ppm (Nephotettix virescens) | mortality at 2500 ppm (Megoura viciae) | mortality at 2500 ppm (Anthonomus grandis) | mortality at 300 ppm (dichromothrips corbetti) | mortality at 2500 ppm (Heliothis virescens) | mortality at 300 ppm (Nezara viridula) | mortality at 300 ppm (Tetranychus kanzawai) | mortality at 2500 ppm (Aedes aegypti)

CCN1C(=O)SC(NC(=O)c2ccc(C3=NOC(c4cc(Cl)cc(Cl)c4)(C(F)(F)F)C3)cc2C)C1=O (stereo not drawn) [Compound I-1-5]
> 75%: mortality at 300 ppm (Plutella xylostella) | mortality at 2500 ppm (Myzus persicae) | mortality at 300 ppm (Nephotettix virescens) | mortality at 300 ppm (Aphis craccivora) | mortality at 2500 ppm (Megoura viciae) | mortality at 2500 ppm (Anthonomus grandis) | mortality at 300 ppm (dichromothrips corbetti) | mortality at 2500 ppm (Heliothis virescens) | mortality at 300 ppm (Nezara viridula) | mortality at 300 ppm (Tetranychus kanzawai) | mortality at 2500 ppm (Aedes aegypti)

Cc1cc(C2=NOC(c3cc(Cl)cc(Cl)c3)(C(F)(F)F)C2)ccc1C(=O)NC1SC(=O)N(C(C)C)C1=O (stereo not drawn) [Compound I-1-6]
> 75%: mortality at 300 ppm (Plutella xylostella) | mortality at 2500 ppm (Myzus persicae) | mortality at 300 ppm (Nephotettix virescens) | mortality at 300 ppm (Aphis craccivora) | mortality at 2500 ppm (Megoura viciae) | mortality at 2500 ppm (Anthonomus grandis) | mortality at 300 ppm (dichromothrips corbetti) | mortality at 2500 ppm (Heliothis virescens) | mortality at 300 ppm (Nezara viridula) | mortality at 2500 ppm (Aedes aegypti)

CN1C(=O)SC(NC(=O)c2ccc(C3=NOC(c4cc(Cl)cc(C(F)(F)F)c4)(C(F)(F)F)C3)c3c2CCC3)C1=O (stereo not drawn) [Compound I-1-8]
> 75%: mortality at 300 ppm (Plutella xylostella) | mortality at 2500 ppm (Myzus persicae) | mortality at 300 ppm (Nephotettix virescens) | mortality at 2500 ppm (Megoura viciae) | mortality at 2500 ppm (Anthonomus grandis) | mortality at 300 ppm (dichromothrips corbetti) | mortality at 2500 ppm (Heliothis virescens) | mortality at 300 ppm (Nezara viridula) | mortality at 300 ppm (Tetranychus kanzawai) | mortality at 2500 ppm (Aedes aegypti)

CN1COC(CNC(=O)c2ccc(C3=NOC(c4cc(Cl)cc(C(F)(F)F)c4)(C(F)(F)F)C3)c3c2CCC3)C1=O (stereo not drawn) [Compound I-3-3]
> 75%: mortality at 300 ppm (Plutella xylostella) | mortality at 2500 ppm (Myzus persicae) | mortality at 300 ppm (Nephotettix virescens) | mortality at 300 ppm (Aphis craccivora) | mortality at 2500 ppm (Megoura viciae) | mortality at 2500 ppm (Anthonomus grandis) | mortality at 300 ppm (dichromothrips corbetti) | mortality at 2500 ppm (Heliothis virescens) | mortality at 300 ppm (Nezara viridula) | mortality at 300 ppm (Tetranychus kanzawai) | mortality at 2500 ppm (Aedes aegypti)

Cc1cc(C2=NOC(c3cc(Cl)cc(Cl)c3)(C(F)(F)F)C2)ccc1C(=O)NCC1OCN(C)C1=O (stereo not drawn) [Compound I-3-11]
> 75%: mortality at 2500 ppm (Caenorhabditis elegans) | mortality at 300 ppm (Plutella xylostella) | mortality at 2500 ppm (Myzus persicae) | mortality at 300 ppm (Aphis craccivora) | mortality at 2500 ppm (Megoura viciae) | mortality at 2500 ppm (Anthonomus grandis) | mortality at 300 ppm (dichromothrips corbetti) | mortality at 2500 ppm (Heliothis virescens) | mortality at 300 ppm (Tetranychus kanzawai) | mortality at 2500 ppm (Aedes aegypti)
